The source of these data is publication PMC7714403 (JCI Insight, 2020).

What is called inhibition is the drop in the measured response relative to a control, in per cent. What is called Inhibition is the change of the read-out against control, counted positive when it falls. What is called IC50 is the concentration that gives 50% inhibition. A higher IC50 goes with a need for much substance.

Each structure is given as a SMILES string.

In one assay the target is PIP4K2B (Homo sapiens, UniProt P78356). The experiment in a line: KiNativ, OCI cells live cell. The class given is cell-based. The conditions noted are these: 2 h, labeling site ATP, peptide […].
PIP4K2B, sequence (P78356 whole entry): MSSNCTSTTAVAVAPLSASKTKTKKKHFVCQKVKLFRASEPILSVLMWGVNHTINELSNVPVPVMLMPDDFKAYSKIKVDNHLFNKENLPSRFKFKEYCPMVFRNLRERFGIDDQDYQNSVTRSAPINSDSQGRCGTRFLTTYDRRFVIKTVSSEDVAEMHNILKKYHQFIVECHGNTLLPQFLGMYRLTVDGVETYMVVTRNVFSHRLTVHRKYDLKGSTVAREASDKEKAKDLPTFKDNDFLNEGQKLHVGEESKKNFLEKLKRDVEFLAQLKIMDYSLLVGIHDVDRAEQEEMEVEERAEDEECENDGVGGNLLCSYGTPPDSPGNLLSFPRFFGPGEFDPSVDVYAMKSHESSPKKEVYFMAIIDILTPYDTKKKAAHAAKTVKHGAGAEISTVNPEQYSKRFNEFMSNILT
For a further assay, the system named is IKKe, TBK1. As to the kind of experiment: KiNativ, OCI cells live cell. The assay is classed as cell-based, human. To be noted: labeling site Lys2, peptide DIKPGNIMR
In another assay the test system is OCI-AML3 cells. The experiment in a line: CD11b expression assay. The class given is cell-based, human. To be noted: 20 nM and 50 nM, 72 hours. The protocol: Apoptosis and CD11b expression assays
At indicated time points, cells were collected and washed with PBS. CD11b expression was measured using anti-CD11b -APC antibody (BioLegend, San Diego, CA). Each sample was suspended in 100uL of FACS buffer (PBS + 4% FBS) with 1uL of antibody, incubated on ice for 15 minutes in the dark and washed once in PBS. DAPI (final concentration 1ug/mL [ThermoFisher Scientific]) was added to each sample as a viability dye. For apoptosis assay, cells were incubated with annexin V-APC (BioLegend) according to manufacturer’s instructions. CD11b expression and apoptosis were measured by BD LSR II flow cytometer. Two-color cytometry was performed, and data were […]
points, cells were collected and washed with 0.1% EDTA PBS (Ricca Chemical Company, Arlington, TX) followed by only PBS. Cells were then fixed on ice with ice-cold 70% ethanol for 30 minutes . Cells were either stored at -20°C for up to 1 month or processed immediately. Cells were spun down at 450 x g for 10 minutes and stained

The target in the next assay is T1, IRAK4 (Homo sapiens, UniProt Q9NWZ3).
T1 sequence (Q9NWZ3 1-460): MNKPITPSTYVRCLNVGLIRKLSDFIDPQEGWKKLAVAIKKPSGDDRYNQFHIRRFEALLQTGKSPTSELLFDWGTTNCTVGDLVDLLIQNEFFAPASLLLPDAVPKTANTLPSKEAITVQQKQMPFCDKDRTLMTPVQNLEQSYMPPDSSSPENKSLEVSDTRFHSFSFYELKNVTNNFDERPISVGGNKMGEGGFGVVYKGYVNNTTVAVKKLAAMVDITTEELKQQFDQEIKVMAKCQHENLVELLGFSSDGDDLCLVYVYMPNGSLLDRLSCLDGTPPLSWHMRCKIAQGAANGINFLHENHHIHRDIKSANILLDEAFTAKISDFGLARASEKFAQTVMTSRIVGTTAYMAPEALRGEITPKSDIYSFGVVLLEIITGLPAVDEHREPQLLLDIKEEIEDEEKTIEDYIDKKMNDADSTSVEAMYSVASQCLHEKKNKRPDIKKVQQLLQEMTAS
The experiment in a line: KiNativ, OCI cells live cell. The class given is cell-based.

The target in another assay is T2, GCK (Homo sapiens, UniProt Q12851).
T2 sequence (Q12851 1-820): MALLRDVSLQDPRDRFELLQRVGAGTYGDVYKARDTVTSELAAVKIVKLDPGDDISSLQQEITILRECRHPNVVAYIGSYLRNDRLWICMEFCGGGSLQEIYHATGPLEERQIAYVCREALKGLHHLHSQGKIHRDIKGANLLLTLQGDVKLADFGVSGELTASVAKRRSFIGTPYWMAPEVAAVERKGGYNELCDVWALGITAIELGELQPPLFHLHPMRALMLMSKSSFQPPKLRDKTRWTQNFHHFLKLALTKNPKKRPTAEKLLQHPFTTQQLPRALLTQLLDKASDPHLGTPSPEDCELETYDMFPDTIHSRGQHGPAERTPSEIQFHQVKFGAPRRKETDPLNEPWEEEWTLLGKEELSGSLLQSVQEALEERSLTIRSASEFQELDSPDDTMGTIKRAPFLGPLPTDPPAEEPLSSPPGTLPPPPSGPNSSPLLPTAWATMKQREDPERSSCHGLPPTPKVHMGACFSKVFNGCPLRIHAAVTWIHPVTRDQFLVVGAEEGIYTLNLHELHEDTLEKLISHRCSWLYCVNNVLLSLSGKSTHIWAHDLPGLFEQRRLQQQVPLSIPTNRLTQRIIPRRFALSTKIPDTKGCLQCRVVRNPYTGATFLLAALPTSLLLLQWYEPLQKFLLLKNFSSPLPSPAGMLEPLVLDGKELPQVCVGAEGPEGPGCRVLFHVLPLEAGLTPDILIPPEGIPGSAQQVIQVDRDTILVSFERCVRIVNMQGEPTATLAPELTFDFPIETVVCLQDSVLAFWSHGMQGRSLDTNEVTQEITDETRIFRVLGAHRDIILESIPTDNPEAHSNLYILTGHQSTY
As to the kind of experiment: Kinase assay by Reaction Biology. The assay is classed as biochemical. The arrangement: purchased Eurofins DiscoverX.

As for `CN1CCN(Cc2ccc(Nc3ncc(Cl)c(Nc4ccccc4S(=O)(=O)N(C)C)n3)cc2)CC1` [TP-0903], on PIP4K2B, the inhibition at 0.1 µM is -24.4%. Also, the Inhibition is reported as 64.1% in the assay on IKKe, TBK1; -0.0707% on IRAK4 (labeling site Lys1, peptide GYVNNTTVAVKK); 8.2% on IRAK4 (labeling site Lys2, peptide DIKSANILLDEAFTAK). Also, in the assay with OCI-AML3 cells, the CD11b expression entry is “increase”. The compound also gave an IC50 at GCK of 2.5 nM.
